Reference: patent US8841413B2, “Antidiabetic compounds” (Cadila Healthcare Limited, priority 2006, dated 2014)

Experiments:
human glucagon receptor = target: T1, human glucagon receptor (Homo sapiens, UniProt P47871); test: In vitro human glucagon antagonist activity (inhibition of cAMP production), CHO/human glucagon R cells; format: cell-based
T1 construct: The full-length cDNA was cloned in pcDNA3.1(Invitrogen); expressed in transfected cells
Method: CHO cells were grown in Ham's F12 medium containing L-Glutamine (2 mM), HEPES (25 mM), NaHCO3 (1.1 g/L) and supplemented with newborn Calf Serum (NBCS; 10%), Penicillin (50 U/ml (v/v)) and Streptomycin (50 ug/ml (v/v)). Cells were split every 3 days 1:8.
The full-length cDNA was cloned in pcDNA3.1(Invitrogen). […] Clones expressing the receptor were generated by G418 (800 μg/ml active, Sigma) selection. The stable clones were thereafter maintained at 500 ug/ml (G418). The selected clone was used between passages 9-25 for cAMP assays.
The trypsin was inactivated using Ham's F12 medium containing 10% NBCS and the cells were suspended in 2 ml of complete medium. […] The medium was aspirated off from the 12 well plate and the cells were washed once using Ham's F12 (plain). […] After the incubation; the medium was removed and cells were washed once with plain Ham's F12. Subsequently, the cells were lysed by adding 500 ul of ice cold 0.1 N HCl to each well and shaking for 30 minutes at 200 rpm. The cells were then scrapped, the lysate was collected in micro centrifuge tubes and centrifuged at 12000 rpm for 10 min to remove the debris. 300 ul of supernatant from each micro-centrifuge tube was then removed into a glass tube and dried under N2 for 30 min, for cAMP estimation. The total cAMP was estimated from the sample according to the manufacturer's protocol using Cyclic AMP immunoassay kit (R&D systems, Minneapolis: MN). The remaining supernatant is used to determine the protein concentration using micro BCA (Sigma). Data is calculated as percent of control (Vehicle: water) and expressed as Mean+SD.

[1] = Stability in human plasma; format: in vitro ADME; settings: 2 μM, 37° C.
Summary of the method: (§1)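 Quench: TFA/H2O 10% v/v. HPLC, TFA/H2O equilibration, 1 mL/min; UV 206 nm. Peaks hand-collected → ESI-MS.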

[2] = system: RIN5F (Rat Insulinoma) cells; test: In vitro glucose-dependent insulin secretion (RIN5F cell assay); format: cell-based; settings: 16.7 mM glucose load, mean ± S.D., n = 3
Method: After trypsinization, RIN5F cells were seeded at a concentration of 0.2×10^6·cells per well, in 12 well plates.
The supernatant was collected and the insulin amount was measured by ultra sensitive Rat insulin ELISA kit (Crystal Chem, Ill.). The protein was estimated in the supernatant using Bicinchoninic Acid kit, according to the manufacturer's protocol (Sigma Aldrich, Mo.). The total insulin content obtained in Pico-gram (pg) was divided with the total protein (μg) in order to normalize for differences in cell density between wells.

[3] = Stability in simulated gastric fluid; format: in vitro ADME; settings: 37° C., pH 1.5, pepsin; for % degradation in 24 h when incubated with simulated gastric fluid: 2 μM; for half-life at 2 μM: simulated gastric fluid with pepsin, read-out: half-life (t1/2) in simulated gastric fluid
Summary of the method: as §1

[4] = Stability in simulated intestinal fluid; format: in vitro ADME; settings: 37° C.; for % degradation in 24 h when incubated with simulated intestinal fluid: 2 μM, pH 7.5; for half-life at 2 μM: simulated intestinal fluid, pH 7.5, read-out: half-life (t1/2) in simulated intestinal fluid
Summary of the method: as §1

DPP IV = DPP IV (Homo sapiens, UniProt P27487); test: Stability against DPP IV enzyme; format: in vitro ADME; settings: 2 μM, 37° C., 24 h
Summary of the method: as §1

[5] = Stability against liver microsomes; format: in vitro ADME, human; settings: for % degradation in 24 h when incubated with liver microsomes: 2 μM, 37° C.; for half-life at 2 μM: human, human liver microsomes, pH 7.8, 37° C., read-out: half-life (t1/2) with liver microsomes
Summary of the method: as §1

[6] = 1 nM test compound (fourth concentration column, between 100 nM and 10 μM) with saturated concentration of glucagon peptide
[7] = 1 nM test compound with saturated concentration of glucagon peptide
[8] = 10 nM test compound with saturated concentration of glucagon peptide
[9] = 100 nM test compound with saturated concentration of glucagon peptide
[10] = 10 μM test compound with saturated concentration of glucagon peptide

Sequence of DPP IV (P27487 whole entry, species assumed): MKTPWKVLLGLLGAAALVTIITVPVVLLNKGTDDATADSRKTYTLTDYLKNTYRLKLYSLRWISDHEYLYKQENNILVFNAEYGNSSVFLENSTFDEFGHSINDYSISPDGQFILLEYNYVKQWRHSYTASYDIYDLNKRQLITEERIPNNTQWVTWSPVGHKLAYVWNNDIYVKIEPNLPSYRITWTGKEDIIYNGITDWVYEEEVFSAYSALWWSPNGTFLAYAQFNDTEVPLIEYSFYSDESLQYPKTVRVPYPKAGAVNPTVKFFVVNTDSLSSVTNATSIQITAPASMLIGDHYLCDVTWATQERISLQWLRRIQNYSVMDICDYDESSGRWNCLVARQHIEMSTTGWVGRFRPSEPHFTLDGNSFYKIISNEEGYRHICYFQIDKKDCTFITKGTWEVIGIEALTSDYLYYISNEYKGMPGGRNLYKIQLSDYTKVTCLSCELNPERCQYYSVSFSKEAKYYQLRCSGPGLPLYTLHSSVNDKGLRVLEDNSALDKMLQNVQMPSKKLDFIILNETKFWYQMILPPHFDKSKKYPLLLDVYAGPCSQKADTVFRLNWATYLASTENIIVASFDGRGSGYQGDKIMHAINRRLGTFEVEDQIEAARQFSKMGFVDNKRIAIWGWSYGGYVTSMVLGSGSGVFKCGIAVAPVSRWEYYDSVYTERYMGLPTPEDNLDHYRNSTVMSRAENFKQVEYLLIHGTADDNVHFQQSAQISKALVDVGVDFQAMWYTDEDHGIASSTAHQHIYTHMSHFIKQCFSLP
T1 sequence (P47871 26-477): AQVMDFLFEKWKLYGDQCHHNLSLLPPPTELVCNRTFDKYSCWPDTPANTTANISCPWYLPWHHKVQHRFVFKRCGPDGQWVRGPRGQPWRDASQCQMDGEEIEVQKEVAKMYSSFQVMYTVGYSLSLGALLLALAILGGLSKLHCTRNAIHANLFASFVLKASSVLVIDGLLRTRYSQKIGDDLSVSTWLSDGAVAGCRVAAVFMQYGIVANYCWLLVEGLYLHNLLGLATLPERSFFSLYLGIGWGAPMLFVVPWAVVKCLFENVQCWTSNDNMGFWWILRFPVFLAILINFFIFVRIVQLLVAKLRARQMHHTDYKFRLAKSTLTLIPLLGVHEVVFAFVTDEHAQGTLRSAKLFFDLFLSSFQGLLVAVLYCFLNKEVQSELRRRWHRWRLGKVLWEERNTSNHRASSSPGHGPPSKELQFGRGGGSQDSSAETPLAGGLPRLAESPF

Structure (SMILES) | Human Glucagon receptor antagonistic activity, inhibition of cAMP production of Glucagon peptide (human glucagon receptor; [6]) | Human Glucagon receptor antagonistic activity, inhibition of cAMP production of Glucagon peptide (human glucagon receptor; [7]) | Human Glucagon receptor antagonistic activity, inhibition of cAMP production of Glucagon peptide (human glucagon receptor; [8]) | Human Glucagon receptor antagonistic activity, inhibition of cAMP production of Glucagon peptide (human glucagon receptor; [9]) | Human Glucagon receptor antagonistic activity, inhibition of cAMP production of Glucagon peptide (human glucagon receptor; [10]) | half-life (t1/2) in human plasma [1] | % degradation in 24 h when incubated with human plasma [1] | Insulin secretion ([2]; 0.1 nM test compd.) | Insulin secretion ([2]; 1 nM test compd.) | Insulin secretion ([2]; 10 nM test compd.) | % degradation in 24 h when incubated with simulated gastric fluid [3] | half-life at 2 μM [3] | % degradation in 24 h when incubated with simulated intestinal fluid [4] | half-life at 2 μM [4] | % degradation in 24 h when incubated with DPP-IV enzyme (DPP IV) | % degradation in 24 h when incubated with liver microsomes [5] | half-life at 2 μM [5]
CCc1cc(OC)ccc1-c1ccc(CC(NC(=O)[C@H](CC(=O)O)NC(=O)[C@H](CO)NC(=O)[C@@H](NC(=O)[C@H](Cc2ccccc2)NC(=O)[C@@H](NC(=O)CNC(=O)[C@H](CCC(N)=O)NC(=O)[C@H](C)NC(=O)[C@@H](N)Cc2c[nH]cn2)[C@@H](C)O)[C@@H](C)O)C(=O)NC(Cc2ccc(-c3ccccc3C)nc2)C(N)=O)cc1 (single isomer, unassigned) [compound 10] | 4 ± 0.01 pmol/ml/μg prt | 15 ± 0.11 pmol/ml/μg prt | 12 ± 0.13 pmol/ml/μg prt | 8 ± 0.09 pmol/ml/μg prt | 2 ± 0.08 pmol/ml/μg prt | (9) h | 71% | 12.7 ± 0.21 pg/µg/h | 15.8 ± 0.33 pg/µg/h | 29.3 ± 0.19 pg/µg/h | 100% | 30 min | 100% | 30 min | 70% | 100% | 30 min
CCc1cc(OC)ccc1-c1ccc(CC(NC(=O)[C@H](CC(=O)O)NC(=O)[C@H](CO)NC(=O)[C@@H](NC(=O)[C@H](Cc2ccccc2)NC(=O)[C@@H](NC(=O)CNC(=O)[C@H](CCC(N)=O)NC(=O)[C@H](C)NC(=O)[C@@H](N)Cc2c[nH]cn2)[C@@H](C)O)[C@@H](C)O)C(=O)NC(Cc2ccc(-c3ccccc3F)cc2)C(N)=O)cc1 (single isomer, unassigned) [compound 11] | 2 ± 0.13 pmol/ml/μg prt | 10 ± 0.03 pmol/ml/μg prt | 8 ± 0.03 pmol/ml/μg prt | 6 ± 0.22 pmol/ml/μg prt | 0 pmol/ml/μg prt | (9) h | 70% | 13.1 ± 0.11 pg/µg/h | 14.9 ± 0.17 pg/µg/h | 28.8 ± 0.44 pg/µg/h | 100% | 30 min | 100% | 30 min | 86% | 100% | 30 min
CCc1cc(OC)ccc1-c1ccc(CC(NC(=O)[C@H](CC(=O)O)NC(=O)[C@H](CO)NC(=O)[C@@H](NC(=O)[C@H](Cc2ccccc2)NC(=O)[C@@H](NC(=O)CNC(=O)[C@H](CCC(N)=O)NC(=O)[C@H](C)NC(=O)[C@@H](N)Cc2c[nH]cn2)[C@@H](C)O)[C@@H](C)O)C(=O)NC(Cc2ccc(-c3ccccc3C(F)(F)F)cc2)C(N)=O)cc1 (single isomer, unassigned) [compound 12] | 0 pmol/ml/μg prt | 5 ± 0.09 pmol/ml/μg prt | 3 ± 0.11 pmol/ml/μg prt | 0 pmol/ml/μg prt | 0 pmol/ml/μg prt | (9) h | 70% | 12.9 ± 0.14 pg/µg/h | 15.8 ± 0.13 pg/µg/h | 29.9 ± 0.15 pg/µg/h | 100% | 30 min | 100% | 30 min | 72% | 100% | 30 min
